In assay [1] the test system is adjuvant-induced arthritis (AIA). The experiment in a line: Adjuvant-induced arthritis (AIA) model. In kind it is in vivo, Lewis rats. As for the experimental part: In vivo adjuvant-induced arthritis (AIA) model. Five-week-old male Lewis rats were obtained from the National Laboratory Animal Center (Taipei, Taiwan). Complete Freund's adjuvant (CFA) was prepared by suspending heat-killed Mycobacterium butyricum (Difco) in mineral oil at 3 mg/mL. CFA-induced arthritis was induced by intradermal injection of 100 μL, of the CFA emulsion into the base of the right hind paw on day 0. […] On days 0, 2, 6, 9, 13, 17, and 21, the animals were weighed and both hind paw volumes measured using a digital plethysmometer (Diagnostic & Research Instruments Co. Ltd, Taipei, Taiwan). On day 21, micro-computed tomography (micro-CT) of the paws was performed by the Core Facilities Center of the National Research Program for Biopharmaceuticals using an in vivo micro-CT scanner (Skyscan 1176, Bruker Corp., Kontich, Belgium) at 18 μm resolution and 180° scanning with a rotation step of 0.8o per image, 300 msec integration time, 70 keV photon energy, and 350 μA current.
Quantification of volumetric bone mineral density (BMD) and bone volume (BV) was performed in a defined bone area ranging 12 mm from tarsals to the end of the calcaneus. The bone mineral content (BMC) was described by the product of BV and BMD.

The next assay addresses ITCH (Homo sapiens, UniProt Q96J02). Put plainly: Blocking of ITCH self-ubiquitination, in vivo assay. In kind it is cell-based. As to conditions: concentration of 0.5 um and 5 um, FIG. 2. The source says:
MPT0L056 of the invention was used to test the blocking of ITCH self-ubiquitination. […] [Reference for in vitro assay: Scialpi F, Malatesta M, Peschiaroli A, Rossi M, Melino G, and Bernassola F. Itch self-polyubiquitylation occurs through lysine-63 linkages. Biochem Pharmacol. 2008 Dec. 1; 76(11):1515-21. Reference for in vivo assay: Chang L, Kamata H, Solinas G, Luo J L, Maeda S, Venuprasad K, Liu Y C, and Karin M. The E3 ubiquitin ligase itch couples JNK activation to TNFalpha-induced cell death by inducing c-FLIP(L) turnover. Cell. 2006 Feb. 10; 124(3):601-131

The subject of another assay is Hep 3B. Put plainly: Growth inhibition assay. Conditions: Homo sapiens, Hep3B; Hep 3B (Liver cancer), 48 hours; read-out: GI50. The format is cell-based. On the procedure: (§1) Cells were seeded in 96-well plastic plates and exposed to MPT0L056 for 48 hours. Cell viability was assessed using the 3-(4,5-dimethylthiazol-2-yl)-2,5-diphenyltetrazolium bromide assay. Growth inhibition was expressed as the percentage of surviving cells in drug-treated versus DMSO-treated control cells.
(§2) The compounds of the invention were subjected to growth inhibition assay.

The test system of a further assay is MDA-MB-231. The experiment in a line: Growth inhibition assay. Conditions: Homo sapiens; MDA-MB-231 (Breast cancer), 48 hours; read-out: GI50. In kind it is cell-based. On the procedure: as §1, §2
The test system of another assay is HCT-116. The experiment in a line: Growth inhibition assay. The format is cell-based. Conditions: Homo sapiens; HCT-116 (Colorectal cancer), 48 hours; read-out: GI50. On the procedure:
as §1, §2

For a further assay, the system named is HL-60. The experiment in a line: Growth inhibition assay. In kind it is cell-based. As to conditions: Homo sapiens; HL-60 (Leukemia), 48 hours. As for the experimental part: as §1, §2
For assay [2], the system named is IL-6 production in murine RAW264.7 macrophage cells. The experiment in a line: IL-6 production in LPS-stimulated RAW264.7 macrophage cells (ELISA). The format is cell-based. Conditions: Mus musculus, RAW 264.7 cells, pretreated 1 h, LPS (25 ng/mL) 24 h. As for the experimental part:
Cell culture. The RAW264.7 mouse macrophage cells were purchased from the Bioresource Collection and Research Center (Hsinchu, Taiwan) and the cells cultured at 37° C. in 5% CO2/95% air in, respectively, 90% Ham's F-12 or Dulbecco's modified Eagle medium, both containing 10% heat-inactivated fetal bovine serum (FBS) (Invitrogen Life Technologies, Carlsbad, CA) and 1% penicillin/streptomycin (Biological Industries, Israel).
IL-6 Determination. To determine the effect of MPT0L056 on the production of cytokine IL-6 from LPS-stimulated cells, RAW 264.7 cells (1×10^6) were plated and pretreated in the presence or absence of MPT0L056 for 1 h, and then stimulated with LPS (25 ng/mL) for 24 h at 37° C. Supernatants were collected and the concentration of cytokines IL-6 was measured by ELISA kit.
(ELISA stands for enzyme-linked immunosorbent assay.)

As a reminder, the GI50 is the concentration that inhibits growth by half. What is called IC50 is the point on the concentration scale where inhibition reaches its midpoint.

Sequence of ITCH (Q96J02 whole entry, species assumed): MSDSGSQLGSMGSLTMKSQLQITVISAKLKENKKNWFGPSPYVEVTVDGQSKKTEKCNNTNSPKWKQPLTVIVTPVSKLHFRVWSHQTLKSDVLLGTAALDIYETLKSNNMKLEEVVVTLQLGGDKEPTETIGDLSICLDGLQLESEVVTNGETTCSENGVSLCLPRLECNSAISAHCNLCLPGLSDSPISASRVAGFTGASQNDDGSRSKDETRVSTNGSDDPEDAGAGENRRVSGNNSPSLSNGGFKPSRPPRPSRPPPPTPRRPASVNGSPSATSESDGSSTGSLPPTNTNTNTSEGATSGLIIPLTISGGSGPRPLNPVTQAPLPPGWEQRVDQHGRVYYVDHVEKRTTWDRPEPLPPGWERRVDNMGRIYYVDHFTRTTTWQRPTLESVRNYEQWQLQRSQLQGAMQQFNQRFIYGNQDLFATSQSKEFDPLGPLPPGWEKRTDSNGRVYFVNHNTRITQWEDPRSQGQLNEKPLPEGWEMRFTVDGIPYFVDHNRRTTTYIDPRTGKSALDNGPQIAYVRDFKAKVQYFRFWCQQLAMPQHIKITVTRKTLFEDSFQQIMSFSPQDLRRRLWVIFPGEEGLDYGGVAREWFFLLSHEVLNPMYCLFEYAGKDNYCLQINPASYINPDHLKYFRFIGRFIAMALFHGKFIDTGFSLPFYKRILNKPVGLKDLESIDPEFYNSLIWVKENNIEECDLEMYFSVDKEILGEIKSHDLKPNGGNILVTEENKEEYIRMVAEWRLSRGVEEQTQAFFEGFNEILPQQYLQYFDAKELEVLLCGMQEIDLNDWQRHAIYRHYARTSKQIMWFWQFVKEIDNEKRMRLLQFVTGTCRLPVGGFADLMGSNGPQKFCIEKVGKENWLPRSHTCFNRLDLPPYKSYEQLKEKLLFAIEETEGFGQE

For `O=C(Nc1ccncc1)c1ccc(CNC2=C(Cl)C(=O)c3ccccc3C2=O)cc1` [MPT0L056], the “bone mineral content (BMC) loss” value in assay [1] (AIA model, FIG. 17) was “can prevent”. For the same compound, the “bone mineral density (BMD) loss” value in assay [1] (AIA model, FIG. 17) is “can prevent”. In addition, the “development of arthritis (micro-CT)” value in assay [1] (MPT0L056 25 mg/kg, po, qd, day 2 to day 21, FIG. 15) is reported as “inhibits development of arthritis”. The paw swelling result in assay [1] (MPT0L056 25 mg/kg, po, qd, day 2 to day 21, FIG. 16) is “significantly reduces paw swelling”. Besides, the “blocking of ITCH's in vivo self-ubiquitination” value on ITCH is recorded as “blocks ITCH's in vivo self-ubiquitination”. Besides, the GI50 amounted to 1.4 µM with Hep 3B, 2.9 µM in the assay on MDA-MB-231, 4.3 µM in the assay on HCT-116 and 1.6 µM with HL-60. Besides, the IC50 in assay [2] came to 1.21 µM.

Source of the values: patent US11919858B2, “Aminonapthoquinone compounds and pharmaceutical composition for blocking ubiquitination-proteasome system in diseases” (Calgent Biotechnology Co., Ltd., priority 2015, dated 2024).
